In US7998965B2, “Glutamate aggrecanase inhibitors” (Wyeth LLC, priority 2005, dated 2011) one finds IC50, Ki and inhibition data, which are given here for 22 compounds.

Each structure is given as a SMILES string. Read-outs that look alike come from different tables or passages of the source. Bounds are passed on as bounds.

The target in assay [1] is T1, purified recombinant human Aggrecanase-1 (rAgg1) (Homo sapiens, UniProt O75173).
T1 sequence (O75173 213-837): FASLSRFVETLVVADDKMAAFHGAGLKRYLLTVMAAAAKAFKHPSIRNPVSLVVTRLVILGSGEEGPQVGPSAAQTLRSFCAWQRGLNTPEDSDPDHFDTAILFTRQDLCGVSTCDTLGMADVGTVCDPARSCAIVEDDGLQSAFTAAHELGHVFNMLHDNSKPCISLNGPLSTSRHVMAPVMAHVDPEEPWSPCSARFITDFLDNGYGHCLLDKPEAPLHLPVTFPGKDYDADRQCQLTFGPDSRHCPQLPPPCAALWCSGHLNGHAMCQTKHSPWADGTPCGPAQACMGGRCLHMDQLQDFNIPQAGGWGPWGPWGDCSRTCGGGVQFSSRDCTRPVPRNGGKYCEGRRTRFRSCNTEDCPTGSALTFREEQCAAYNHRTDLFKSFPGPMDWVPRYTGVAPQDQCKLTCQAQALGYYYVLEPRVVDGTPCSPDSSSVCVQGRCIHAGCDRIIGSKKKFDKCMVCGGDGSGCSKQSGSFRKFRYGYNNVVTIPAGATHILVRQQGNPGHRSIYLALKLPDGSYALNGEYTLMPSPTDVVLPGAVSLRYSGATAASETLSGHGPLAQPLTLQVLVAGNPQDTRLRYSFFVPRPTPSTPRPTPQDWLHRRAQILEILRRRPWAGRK
Put plainly: In vitro fluorescence screen for Aggrecanase-1 inhibitors. Type of assay: biochemical. Conditions: for IC50: read-out: Agg1 IC50; for Ki: read-out: Ki Agg1.

Assay [2] addresses T2, purified recombinant human Aggrecanase-2 (Ag2t-Phe628-Strep) (Homo sapiens, UniProt Q9UNA0).
T2 construct: the form used is denoted as Ag2t-Phe628-Strep (MW=41,737)
T2 sequence (Q9UNA0 262-628): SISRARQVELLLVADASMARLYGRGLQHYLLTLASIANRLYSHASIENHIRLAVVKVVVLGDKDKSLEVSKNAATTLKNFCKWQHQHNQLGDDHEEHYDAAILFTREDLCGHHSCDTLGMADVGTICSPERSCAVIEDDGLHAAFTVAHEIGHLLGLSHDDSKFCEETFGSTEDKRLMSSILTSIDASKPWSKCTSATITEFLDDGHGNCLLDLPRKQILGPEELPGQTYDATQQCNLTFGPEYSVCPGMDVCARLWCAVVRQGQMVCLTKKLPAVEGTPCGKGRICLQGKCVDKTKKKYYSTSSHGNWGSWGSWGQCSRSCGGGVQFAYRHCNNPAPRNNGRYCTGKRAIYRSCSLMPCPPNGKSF
The experiment in a line: In vitro fluorescence screen for Aggrecanase-2 inhibitors. The assay is classed as biochemical. Conditions: for IC50: read-out: Agg 2 IC50; for Ki: read-out: Ki Agg2.

As for `C[C@H](NC(=O)[C@H](CCC(=O)O)NC(=O)c1ccc(-c2ccccc2)cc1)c1ccc(F)cc1` [Example 8RRRRR, N^2-(biphenyl-4-ylcarbonyl)-N1-[(1S)-1-(4-fluorophenyl)ethyl]-L-α-glutamine], the concentration for half-maximal inhibition (IC50) (usually the concentration needed to halve the response being measured) in assay [1] (Table 2) was 0.129 µM; in assay [2] (Table 2), 2.9 µM.
In the same order, the values of `COc1cc(CNC(=O)[C@H](CCC(=O)O)NC(=O)c2ccc(-c3ccc(OCc4cc(C(F)(F)F)cc(C(F)(F)F)c4)cc3)cc2)cc(OC)c1OC` [Example 19E, N^2-[(4′-{[3,5-bis(trifluoromethyl)benzyl]oxy}biphenyl-4-yl)carbonyl]-N-(3,4,5-trimethoxybenzyl)-L-α-glutamine] are 0.049 µM and 1.12 µM.
For `CC(C)(Cc1ccc(Cl)cc1)NC(=O)[C@H](CCC(=O)O)NC(=O)c1ccc(-c2cc(F)cc(F)c2)cc1` [Example 8DDDDDDD, N-[2-(4-chlorophenyl)-1,1-dimethylethyl]-N^2-[(3′,5′-difluorobiphenyl-4-yl)carbonyl]-L-α-glutamine], the IC50 in assay [1] (Table 3) was under 0.03 µM; in assay [2] (Table 3), 0.22 µM.
Regarding `CC(C)(Cc1ccc(F)cc1)NC(=O)[C@H](CCC(=O)O)NC(=O)c1ccc(-c2ccccc2)s1` [N-[2-(4-fluorophenyl)-1,1-dimethylethyl]-N^2-[(5-phenyl-2-thienyl)carbonyl]-L-α-glutamine], the IC50 in assay [1] (Table 3) was under 0.03 µM; in assay [2] (Table 3) it was 0.06 to 0.2 µM. The Ki (as a rule, the equilibrium dissociation constant of an inhibitor or competing ligand from its target) in assay [1] (Table 3) is 0.0038 µM; in assay [2] (Table 3) it was 0.079 µM.
Turning to `O=C(O)CC[C@H](NC(=O)c1ccc(-c2ccc3ccccc3c2)cc1)C(=O)NCc1ccccc1` [Example 12F, N-benzyl-N^2-[4-(2-naphthyl)benzoyl]-L-α-glutamine], the values for the IC50 in assay [1] (Table 2) and in assay [2] (Table 2) were about 3 µM and 3 to 8 µM, respectively.
`O=C(O)CC[C@H](NC(=O)c1ccc(Br)cc1)C(=O)NCC12CC3CC(CC(C3)C1)C2` [Example 18F, N-(1-adamantylmethyl)-N^2-(4-bromobenzoyl)-L-α-glutamine]: the IC50 in assay [1] (Table 2) and in assay [2] (Table 2) was over 67 µM throughout.
As to `CC(C)(Cc1ccccc1)NC(=O)[C@H](CCC(=O)O)NC(=O)c1ccc(-c2cncnc2)cc1` [Example 8FFFFFFF, N-(1,1-dimethyl-2-phenylethyl)-N^2-(4-pyrimidin-5-ylbenzoyl)-L-α-glutamine], the IC50 in assay [1] (Table 3) was 0.2 µM; in assay [2] (Table 3), 4.2 µM.
As to `CC(C)(Cc1ccc(Cl)cc1)NC(=O)[C@H](CCC(=O)O)NC(=O)c1ccc(-c2ccc(Cl)s2)nc1` [N-[2-(4-chlorophenyl)-1,1-dimethylethyl]-N^2-{[6-(5-chloro-2-thienyl)pyridin-3-yl]carbonyl}-L-α-glutamine], the IC50 in assay [1] (Table 3) lay within 0.02 to 0.07 µM; in assay [2] (Table 3) it was 0.1 to 0.3 µM. For the same compound, the Ki in assay [1] (Table 3) came to 0.0406 µM; in assay [2] (Table 3), 0.526 µM.
On to `CC(C)(Cc1ccc(Cl)s1)NC(=O)[C@H](CCC(=O)O)NC(=O)c1ccc(-c2ccc(F)c(F)c2)cc1` [Example 8IIIIIII, N-[2-(5-chloro-2-thienyl)-1,1-dimethylethyl]-N^2-[(3′,4′-difluorobiphenyl-4-yl)carbonyl]-L-α-glutamine], for which the IC50 in assay [1] (Table 3) was under 0.03 µM; in assay [2] (Table 3), 0.042 µM.
For `COc1cccc(-c2ccc(C(=O)N[C@@H](CCC(=O)O)C(=O)NC(C)(C)Cc3ccc(F)cc3)cc2)c1` [Example 17EE, N-[2-(4-fluorophenyl)-1,1-dimethylethyl]-N^2-[(3′-methoxybiphenyl-4-yl)carbonyl]-L-α-glutamine], the IC50 was under 0.03 µM in assay [1] (Table 2) and 0.194 µM in assay [2] (Table 2).
On to `O=C(O)CC[C@H](NC(=O)c1ccc(-c2ccccc2)cc1)C(=O)NCCc1ccc(-c2ccccc2)cc1` [Example 10C, N^2-(biphenyl-4-ylcarbonyl)-N^1-(2-biphenyl-4-ylethyl)-L-α-glutamine], for which the IC50 was 0.24 µM in assay [1] (Table 1) and over 5 µM in assay [2] (Table 1).
Regarding `CC(C)(Cc1ccc(F)cc1)NC(=O)[C@H](CCC(=O)O)NC(=O)c1ccc(-c2cccc(O)c2)cc1` [Example 17UU, N-[2-(4-fluorophenyl)-1,1-dimethylethyl]-N^2-[(3′-hydroxybiphenyl-4-yl)carbonyl]-L-α-glutamine], the IC50 in assay [1] (Table 2) was under 0.03 µM; in assay [2] (Table 2), 0.039 µM.
For the compound `COc1cc(CNC(=O)[C@H](CCC(=O)O)NC(=O)c2ccc(Br)cc2)cc(OC)c1OC` [Example 18D, N^2-(4-bromobenzoyl)-N-(3,4,5-trimethoxybenzyl)-L-α-glutamine], the IC50 in assay [1] (Table 2) was 4.4 µM; in assay [2] (Table 2) it was over 22 µM.
`O=C(O)CC[C@H](NC(=O)c1ccc(-c2ccccc2)cc1)C(=O)NCCc1cccc(Cl)c1` [Example 8YY, N^2-(1,1′-biphenyl-4-ylcarbonyl)-N^1-[2-(3-chlorophenyl)ethyl]-L-α-glutamine]: the figures for the IC50 in assay [1] (Table 1) and in assay [2] (Table 1) were 0.53 µM and 4.5 µM, respectively.
For `COc1ccc(-c2ccc(C(=O)N[C@@H](CCC(=O)O)C(=O)NC(C)(C)Cc3ccccc3)cc2)cc1OC` [Example 17J, N^2-[(3′,4′-dimethoxybiphenyl-4-yl)carbonyl]-N-(1,1-dimethyl-2-phenylethyl)-L-α-glutamine], the IC50 in assay [1] (Table 2) is about 5.6 µM; in assay [2] (Table 2), about 30 µM.
The corresponding values for `COc1ccc(-c2ccc(C(=O)N[C@@H](CCC(=O)O)C(=O)NCc3cc(OC)c(OC)c(OC)c3)cc2)cc1` [Example 17B, N^2-[(4′-methoxybiphenyl-4-yl)carbonyl]-N-(3,4,5-trimethoxybenzyl)-L-α-glutamine] are 0.204 µM and 1.02 µM.
For `CCOc1ccccc1-c1ccc(C(=O)N[C@@H](CCC(=O)O)C(=O)NC(C)(C)Cc2ccccc2)cc1` [Example 17K, N-(1,1-dimethyl-2-phenylethyl)-N^2-[(2′-ethoxybiphenyl-4-yl)carbonyl]-L-α-glutamine], the IC50 is 1.2 µM in assay [1] (Table 2) and about 3.7 µM in assay [2] (Table 2).
In the case of `CC(C)(Cc1ccccc1)NC(=O)[C@H](CCC(=O)O)NC(=O)c1ccc(-c2ccc3c(c2)OCO3)cc1` [Example 17P, N^2-[4-(1,3-benzodioxol-5-yl)benzoyl]-N-(1,1-dimethyl-2-phenylethyl)-L-α-glutamine], the IC50 in assay [1] (Table 2) stood at 0.126 µM; in assay [2] (Table 2), 0.058 µM.
As for `O=C(O)CC[C@H](NC(=O)C1c2ccccc2-c2ccccc21)C(=O)NCc1ccccc1` [Example 8KKKKK, N^1-benzyl-N^2-(9H-fluoren-9-ylcarbonyl)-L-α-glutamine], the results for the IC50 in assay [1] (Table 2) and in assay [2] (Table 2) were over 50 µM and over 22 µM, respectively.
For `COc1cc(CNC(=O)[C@H](CCC(=O)O)NC(=O)c2ccc(-c3cc(OC)c(OC)c(OC)c3)cc2)cc(OC)c1OC` [Example 17H, N-(3,4,5-trimethoxybenzyl)-N^2-[(3′,4′,5′-trimethoxybiphenyl-4-yl)carbonyl]-L-α-glutamine], the IC50 in assay [1] (Table 2) was 1 µM; in assay [2] (Table 2) it was about 22 µM.
Consider `CC(=O)c1ccc(-c2ccc(C(=O)N[C@@H](CCC(=O)O)C(=O)NC(C)(C)Cc3ccc(Cl)cc3)cc2)s1` [N^2-[4-(5-acetyl-2-thienyl)benzoyl]-N-[2-(4-chlorophenyl)-1,1-dimethylethyl]-L-α-glutamine], for which the IC50 in assay [1] (Table 3) came out at 2.4 µM. The inhibition at 7.4 µM in assay [2] (read-out: Agg 2 % at concentration) stood at 50%.
`COc1ccc(-c2cccc(CCNC(=O)[C@H](CCC(=O)O)NC(=O)c3ccc(-c4ccccc4)cc3)c2)cc1` [Example 10L, N^2-(biphenyl-4-ylcarbonyl)-N^1-[2-(4′-methoxybiphenyl-3-yl)ethyl]-L-α-glutamine]: the IC50 in assay [1] (Table 1) came out at 0.13 µM; in assay [2] (Table 1), 2 µM.
